Where two headings read alike, the source gives them in different places.
Legend:
[1] = target: T1, AHR (UniProt P35869); assay: DRE-Luciferase Reporter Assay (Alternate Method) (Example 1B); type: cell-based, murine or human; conditions: cell line and AHR activating ligand not specified
T1 construct: IC50
T1 sequence (P35869 1-848): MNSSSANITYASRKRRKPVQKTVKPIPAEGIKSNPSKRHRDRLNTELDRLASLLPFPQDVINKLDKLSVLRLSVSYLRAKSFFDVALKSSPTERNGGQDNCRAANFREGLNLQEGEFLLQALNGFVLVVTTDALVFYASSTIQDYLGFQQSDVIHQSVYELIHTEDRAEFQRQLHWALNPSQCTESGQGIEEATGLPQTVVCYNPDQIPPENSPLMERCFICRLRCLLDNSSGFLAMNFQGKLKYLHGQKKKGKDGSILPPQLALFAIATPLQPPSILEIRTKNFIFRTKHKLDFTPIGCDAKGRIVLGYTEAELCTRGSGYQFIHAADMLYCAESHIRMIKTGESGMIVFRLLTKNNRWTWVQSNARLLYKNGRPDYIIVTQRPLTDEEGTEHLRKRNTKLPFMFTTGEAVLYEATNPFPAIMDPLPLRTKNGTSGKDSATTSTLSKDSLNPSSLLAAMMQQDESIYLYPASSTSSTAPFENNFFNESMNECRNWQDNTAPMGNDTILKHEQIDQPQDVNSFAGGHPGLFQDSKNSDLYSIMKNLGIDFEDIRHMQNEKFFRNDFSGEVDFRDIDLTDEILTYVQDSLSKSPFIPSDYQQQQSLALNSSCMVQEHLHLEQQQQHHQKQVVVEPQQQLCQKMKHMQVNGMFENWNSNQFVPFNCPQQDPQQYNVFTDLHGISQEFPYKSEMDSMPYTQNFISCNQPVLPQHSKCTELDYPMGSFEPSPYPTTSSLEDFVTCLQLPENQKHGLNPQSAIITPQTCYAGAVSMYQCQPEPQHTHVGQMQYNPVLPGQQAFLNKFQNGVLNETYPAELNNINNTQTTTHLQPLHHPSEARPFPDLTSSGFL

[2] = In Vitro Mouse liver S9 Metabolic Stability Assay (Example 1D); type: in vitro ADME; conditions: CD-1 mouse liver S9, 1 μM compound, 1 mg/mL S9 protein, 37° C., NADPH regenerating system, UDPGA, PAPS
In short: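 Compound at 1 μM final (0.1% DMSO) incubated at 37° C with pooled CD-1 mouse liver S9 (1 mg/mL protein) plus NADPH-regenerating system, UDPGA and PAPS. Samples at 0 and 60 min quenched in cold acetonitrile with internal standard; LC-MS/MS analyte/IS peak-area ratios give % remaining at 60 min.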

[3] = tested on: Cyp1a1; assay: In Vivo Mouse liver and spleen Cyp1a1 Modulation Assay (Example 1E); parameters: species or system C57BL/6 mice; conditions: po, with AHR agonist VAG539 30 mg/kg po, qPCR
Protocol: C57BL/6 mice, female, 6-8 weeks old, weighing approximately 18-20 g were purchased from Shanghai Lingchang Biological Technology Co., Ltd or other certified vendors and used in the studies. Animal husbandry, feeding and health conditions are according to animal welfare guidelines. VAG539 (30 mg/kg, po) was used as AHRagonist, and test compounds were formulated in suitable vehicles, typically 0.5% methylcellulose).
C57BL/6 mice (n=3 per group) were treated with AHR agonist alone or with AHR agonist and test compounds. Animals were sacrificed at 4 or 10 hours after treatment upon which their livers and spleens were collected and subsequently analyzed by qPCR. Normalized fold induction of cyp1a1 was determined by comparing mCYP1A1 and mGAPDH counts (ct) according to: normalized fold=2^−ΔΔCt. The percent inhibition was calculated according to: […]

[4] = 4 h, read-out: Cyp1a1 inhibition, Liver, 4 h
[5] = 4 h, read-out: Cyp1a1 inhibition, Spleen, 4 h
[6] = 10 h, read-out: Cyp1a1 inhibition, Liver, 10 h

| IC50 [1] | Mouse S9 Stability: % Remaining After 60 Minutes [2] | SMILES | inhibition at 30 mg/kg [3, 4] | inhibition at 5 mg/kg [3, 4] | inhibition at 5 mg/kg [3, 5] | inhibition at 10 mg/kg [3, 4] | inhibition at 10 mg/kg [3, 5] | inhibition at 25 mg/kg [3, 4] | inhibition at 25 mg/kg [3, 5] | inhibition at 5 mg/kg [3, 6] | inhibition at 10 mg/kg [3, 6] | inhibition at 25 mg/kg [3, 6] | inhibition at 1 mg/kg [3, 4] | inhibition at 1 mg/kg [3, 5] | inhibition at 2 mg/kg [3, 4] | inhibition at 2 mg/kg [3, 5] | inhibition at 1 mg/kg [3, 6] | inhibition at 2 mg/kg [3, 6] |
| --- | --- | --- | --- | --- | --- | --- | --- | --- | --- | --- | --- | --- | --- | --- | --- | --- | --- | --- |
| < 500 nM | 13% | CC(C)c1cnn2c(NCCc3c[nH]c4ccccc34)cc(-c3cncc(F)c3)nc12 [I-2, N-(2-(1H-indol-3-yl)ethyl)-5-(5-fluoropyridin-3-yl)-3-isopropylpyrazolo[1,5-a]pyrimidin-7-amine] | 50% | – | – | – | – | – | – | – | – | – | – | – | – | – | – | – |
| < 500 nM | 87% | CC(C)c1cnn2c(N[C@@H]3CCc4[nH]c5ccccc5c4C3)nc(-c3cncc(F)c3)nc12 [I-40, (3R)—N-[2-(5-Fluoro-3-pyridyl)-8-isopropyl-pyrazolo[1,5-a][1,3,5]triazin-4-yl]-2,3,4,9-tetrahydro-1H-carbazol-3-amine] | – | 77% | 34% | 93% | 74% | 98% | 96% | 48% | 75% | 97% | – | – | – | – | – | – |
| – | 0% | Cc1cnn2c(NCCc3c[nH]c4ccccc34)cc(-c3cncc(F)c3)nc12 [I-70, 5-(5-Fluoro-3-pyridyl)-N-[2-(1H-indol-3-yl)ethyl]-3-methyl-pyrazolo[1,5-a]pyrimidin-7-amine] | 98% | 93% | 79% | 99% | 88% | – | – | 96% | 81% | – | 52% | 38% | 83% | 65% | 34% | 63% |
| < 500 nM | 34% | Cc1cnn2c(N[C@@H]3CCc4[nH]c5ccccc5c4C3)nc(-c3cncc(F)c3)nc12 [I-201, (3R)—N-[2-(5-fluoro-3-pyridyl)-8-methyl-pyrazolo[1,5-a][1,3,5]triazin-4-yl]-2,3,4,9-tetrahydro-1H-carbazol-3-amine] | – | 58% | 40% | 72% | 46% | 86% | 72% | 44% | 59% | 97% | – | – | – | – | – | – |

Source: patent US11358969B2, “Indole AHR inhibitors and uses thereof” (Ikena Oncology, Inc., priority 2017, dated 2022)
